Among the data in patent publication US11964996B2, “2-alkynylmannose derivative and application thereof” (priority 2020, dated 2024) are EC90 values, retold here.

The structures appear in SMILES notation.

In the assay the target is T1, FimH proteins (Escherichia coli, UniProt Q1R2J4).
T1 construct: endogenous in cells; host or cells: UPEC strain UTI89 (whole bacteria)
Briefly: hemagglutination inhibition (HAI) assay: UPEC UTI89 with guinea pig red blood cells. The format is cell-based, uropathogenic Escherichia coli (UPEC) UTI89. The settings on record: read-out: HAI EC90 (minimum concentration for inhibiting hemagglutination). The protocol: In the present example, the mannose derivatives A1 to A107 that were prepared in Examples 1 to 12 were analyzed in hemagglutination inhibition (HAI) assays to determine inhibitory effects of the compounds on the function/activity of FimH proteins.
1. Preparation of a guinea pig red blood cell solution: an adult guinea pig was anesthetized with ethyl ether, blood was sampled from the heart, placed in an EDTA blood collection tube, and centrifuged at 2,000 rpm for 5 min, serum was removed, the sample was transferred in a centrifuge tube (15 mL), sterilized PBS was added, the sample was centrifuged at 1,500 rpm for 10 min, a supernatant was removed, the sample was transferred in a centrifuge tube (50 mL), PBS was added, the sample was centrifuged at 1,500 rpm for 10 min and repeatedly washed twice, and red blood cells were slightly aspirated into a new centrifuge tube (50 mL) to obtain a 5% guinea pig red blood cell solution.
2. Preparation of a bacteria solution: a UPEC cell line UTI89 was inoculated on a medium plate and cultured in an incubator at 37° C. overnight. Single colonies were picked and inoculated in an LB medium in a sterilized conical flask, and cultured at 37° C. and 170 r/min overnight. When an OD value at 540 nm was about 0.8 on a microplate reader, the bacterial concentration was about 10^8-10^9 cfu/mL, the bacteria solution was centrifuged at 2,000 rpm for 10 min, a supernatant was removed, and 1 mL of bacteria solution was prepared into 0.1 mL of PBS bacteria solution. […] The bacteria and the medium were uniformly mixed by shaking, and reacted in an incubator at 25° C. for about 20-40 min. When the plate was read, the wells in which complete agglutination occurred were used as 4HAU for the hemagglutination titer of the bacteria. For example, if the endpoint titer of hemagglutination is 1:256, the dilution multiple of the 4HAU antigen is 1:64 (256 divided by 4). Bacteria solutions at corresponding concentrations were prepared according to the experimental results.
3. Activity assay: a compound to be tested or a standard product was placed in a 96-well microtest plate, 50 μL of drug at an initial concentration of 200 μM was placed in the first well, and from the second well, 25 μL of PBS was added to each well to dilute the drug in proportion. The drug and the medium in the first well were mixed, 25 μL of mixed drug solution was placed in the second well, the drug solution was diluted in sequence to the last well, and 25 μL of drug solution was removed. 25 μL of bacteria solution was placed in each well of the culture plate containing the diluted drug, and cultured at 37° C. for 40 min. 25 μL of 5% guinea pig red blood cell suspension was placed in each well, and slightly uniformly mixed with the drug, and the plate was placed at 4° C. for about 1 h. When results were determined, the plate was tilted 60°, and whether the red blood cells flowed like teardrops was observed.
Mannosyl proteins are expressed on the surface of red blood cells in a guinea pig, which can bind to FimH proteins of UTI89 to cause hemagglutination. It can be observed with the naked eyes that the red blood cells form film-like agglutination at the bottom of the well, and loose red dots can be seen in the center. The FimH protein inhibitor competitively binds to FimH proteins to inhibit hemagglutination. It can be observed with the naked eyes that all the red blood cells sink and concentrate at the bottom of the well to form dense dots. The minimum concentration for inhibiting hemagglutination is expressed as an EC90 value of a compound. The final concentration of the compound in the first well is 66700 nM, the concentration in the second well is half that in the first well, the concentration in the third well is half that in the second well, and so on. […] A low EC90 value indicates high activity of a compound.
Turning to `OC[C@H]1O[C@H](C#Cc2cnn(-c3ccc(Cl)cc3)c2)[C@](O)(C#CC2CC2)[C@@H](O)[C@@H]1O` [Compound A72], the EC90 is less than 0.1 nM. In the case of `OC[C@H]1O[C@H](C#Cc2cnn(-c3ccc(Cl)cc3)c2)[C@](O)(C#Cc2cccnc2)[C@@H](O)[C@@H]1O` [Compound A73] it was 8 nM; in that of `Cn1cc(C#C[C@@]2(O)[C@@H](C#Cc3cnn(-c4ccc(Cl)cc4)c3)O[C@H](CO)[C@@H](O)[C@@H]2O)cn1` [Compound A74], 0.13 nM; in that of `CO[C@H]1CC[C@H](n2cc(C#C[C@H]3O[C@H](CO)[C@@H](O)[C@H](O)[C@@]3(O)C#Cc3cc(F)cc(F)c3)cn2)CC1` [Compound A75], 8 nM.

On to `OC[C@H]1O[C@H](C#Cc2cnn([C@H]3CC[C@H](O)CC3)c2)[C@](O)(C#Cc2ccc(F)cc2)[C@@H](O)[C@@H]1O` [Compound A76], for which the EC90 is 4 nM. Turning to `OC[C@H]1O[C@H](C#Cc2cnn([C@H]3CC[C@H](O)CC3)c2)[C@](O)(C#Cc2ccccc2)[C@@H](O)[C@@H]1O` [Compound A77], the EC90 is 2 nM. Take `CCn1cc(C#C[C@@]2(O)[C@@H](C#Cc3cnn(-c4ccc(Cl)cc4)c3)O[C@H](CO)[C@@H](O)[C@@H]2O)cn1` [Compound A78]: the EC90 was less than 0.1 nM. With `Cn1cc(C#C[C@@]2(O)[C@@H](C#Cc3cnn(-c4cnn(C)c4)c3)O[C@H](CO)[C@@H](O)[C@@H]2O)cn1` [Compound A79], the EC90 was determined as 16 nM. Take `CCC#C[C@@]1(O)[C@@H](C#Cc2cnn(-c3ccc(Cl)cc3)c2)O[C@H](CO)[C@@H](O)[C@@H]1O` [Compound A80]: the EC90 came to 2 nM.

For `COc1ccc(-n2cc(C#C[C@H]3O[C@H](CO)[C@@H](O)[C@H](O)[C@@]3(O)C#Cc3ccccc3)cn2)cc1` [Compound A81], the EC90 was less than 0.1 nM. Consider `COc1ccc(-n2cc(C#C[C@H]3O[C@H](CO)[C@@H](O)[C@H](O)[C@@]3(O)C#Cc3cnn(C)c3)cn2)cc1` [Compound A82], for which the EC90 is less than 0.1 nM.

With `Cn1cc(C#C[C@@]2(O)[C@@H](C#Cc3cnn(C4CCC(F)(F)CC4)c3)O[C@H](CO)[C@@H](O)[C@@H]2O)cn1` [Compound A83], the EC90 came out at 2 nM. Turning to `Cn1cc(C#C[C@@]2(O)[C@@H](C#Cc3cnn(-c4ccccc4)c3)O[C@H](CO)[C@@H](O)[C@@H]2O)cn1` [Compound A84], the EC90 worked out at 0.25 nM.

`Cn1cc(C#C[C@@]2(O)[C@@H](C#Cc3cnn(C4CCCCC4)c3)O[C@H](CO)[C@@H](O)[C@@H]2O)cn1` [Compound A85]: the EC90 was determined as 2 nM. Regarding `CCC#C[C@@]1(O)[C@@H](C#Cc2cnn(-c3ccccc3)c2)O[C@H](CO)[C@@H](O)[C@@H]1O` [Compound A87], the EC90 stood at 32 nM. For `OC[C@H]1O[C@H](C#Cc2cnn(-c3ccccc3)c2)[C@](O)(C#CC2CC2)[C@@H](O)[C@@H]1O` [Compound A88], the EC90 came to 4 nM.

Consider `O=S(=O)(O)c1cccc(C#C[C@@]2(O)[C@@H](C#Cc3cnn(-c4ccc(OC[C@H](O)CO)cc4)c3)O[C@H](CO)[C@@H](O)[C@@H]2O)c1` [Compound A89], for which the EC90 was 16 nM. Turning to `[2H]C([2H])([2H])Oc1ccc(-n2cc(C#C[C@H]3O[C@H](CO)[C@@H](O)[C@H](O)[C@@]3(O)C#CC3CC3)cn2)cc1` [Compound A90], the EC90 is less than 0.1 nM. As for `OC[C@@H](O)COc1ccc(-n2cc(C#C[C@H]3O[C@H](CO)[C@@H](O)[C@H](O)[C@@]3(O)C#Cc3cnn(C[C@H](O)CO)c3)cn2)cc1` [Compound A91], the figure is 8 nM; as for `OC[C@H]1O[C@H](C#Cc2cnn(-c3cccc(Cl)c3)c2)[C@](O)(C#CC2CC2)[C@@H](O)[C@@H]1O` [Compound A92], 2 nM. As for `OC[C@H]1O[C@H](C#Cc2cnn(-c3ccc(F)cc3)c2)[C@](O)(C#CC2CC2)[C@@H](O)[C@@H]1O` [Compound A93], the EC90 came to 2 nM. Turning to `Cc1ccc(-n2cc(C#C[C@H]3O[C@H](CO)[C@@H](O)[C@H](O)[C@@]3(O)C#CC3CC3)cn2)cc1` [Compound A94], the EC90 was less than 0.1 nM.

Turning to `OC[C@H]1O[C@H](C#Cc2cnn(-c3ccc(C(F)(F)F)cc3)c2)[C@](O)(C#CC2CC2)[C@@H](O)[C@@H]1O` [Compound A95], the EC90 stood at 4 nM. As for `N#Cc1ccc(-n2cc(C#C[C@H]3O[C@H](CO)[C@@H](O)[C@H](O)[C@@]3(O)C#CC3CC3)cn2)cc1` [Compound A96], the figure is 4 nM; as for `COc1ccc(-n2cc(C#C[C@H]3O[C@H](CO)[C@@H](O)[C@H](O)[C@@]3(O)C#CC3CC3)cn2)cc1` [Compound A97], less than 0.1 nM; as for `COCCOc1ccc(-n2cc(C#C[C@H]3O[C@H](CO)[C@@H](O)[C@H](O)[C@@]3(O)C#CC3CC3)cn2)cc1` [Compound A98], less than 0.1 nM. As for `OC[C@H]1O[C@H](C#Cc2cnn(-c3ccc(O[C@@H]4CCOC4)cc3)c2)[C@](O)(C#CC2CC2)[C@@H](O)[C@@H]1O` [Compound A99], the EC90 was less than 0.1 nM. For the molecule `OC[C@H]1O[C@H](C#Cc2cnn(-c3ccc(O[C@H]4CCOC4)cc3)c2)[C@](O)(C#CC2CC2)[C@@H](O)[C@@H]1O` [Compound A100], the EC90 is less than 0.1 nM. As to `OC[C@H]1O[C@H](C#Cc2cnn(-c3cccc(F)c3)c2)[C@](O)(C#Cc2ccccc2)[C@@H](O)[C@@H]1O` [Compound A101], the EC90 came to 0.25 nM. Consider `COCCOc1ccc(-n2cc(C#C[C@H]3O[C@H](CO)[C@@H](O)[C@H](O)[C@@]3(O)C#Cc3ccccc3)cn2)cc1` [Compound A102], for which the EC90 was less than 0.1 nM. For the molecule `OC[C@H]1O[C@H](C#Cc2cnn(-c3ccc(O[C@@H]4CCOC4)cc3)c2)[C@](O)(C#Cc2ccccc2)[C@@H](O)[C@@H]1O` [Compound A103], the EC90 is less than 0.1 nM. In the case of `OC[C@H]1O[C@H](C#Cc2cnn(-c3ccc(O[C@H]4CCOC4)cc3)c2)[C@](O)(C#Cc2ccccc2)[C@@H](O)[C@@H]1O` [Compound A104] it was less than 0.1 nM; in that of `OC[C@H]1O[C@H](C#Cc2cnn(-c3ccc(C4CC4)cc3)c2)[C@](O)(C#CC2CC2)[C@@H](O)[C@@H]1O` [Compound A105], 0.13 nM.

Consider `CCOc1ccc(-n2cc(C#C[C@H]3O[C@H](CO)[C@@H](O)[C@H](O)[C@@]3(O)C#CC3CC3)cn2)cc1` [Compound A106], for which the EC90 was less than 0.1 nM.

`CC(C)Oc1ccc(-n2cc(C#C[C@H]3O[C@H](CO)[C@@H](O)[C@H](O)[C@@]3(O)C#CC3CC3)cn2)cc1` [Compound A107]: the EC90 is less than 0.1 nM.
